Data published in patent US7772260B2, “Imidazo[2,1-b]-1,3,4-thiadiazole sulfonamides” (Aegera Therapeutics Inc., priority 2001, dated 2010).
Where a name gives a salt, the structure may show the parent alone. Read-outs that look alike come from different tables or passages of the source.

Tested on: SCG neurons
Test: cells
Format: cell-based, Sprague Dawley rats
Conditions: Rattus norvegicus, Neuron, read-out: IC(50), protection of SCG neurons from Taxol killing
Protocol: Taxol™ is regularly used in breast cancer chemotherapy. In cancer cells Taxol™ binds to the cyto-skeletal protein tubulin, thereby inhibiting normal microtubular assembly and inducing cellular apoptosis. Despite its potency as an anti-tumour agent, Taxol™ is also toxic to neurons, inducing dose limiting peripheral neuropathies. The addition of Taxol™ (100 ng/mL) to cultured SCG neurons induces the degradation or loss of upwards of 80% of the neurons.
FIG. 1 illustrates the protection provided by compound 1 (referred to here as AEG3482) against Taxol™ induced killing. PI Sprague Dawley rat SCG neurons were cultured and incubated with NGF (50 ng/mL) for 5 days.

[1] = Taxol™ (50 ng/mL), viability 48 hours later, MTS

| Structure (SMILES) | IC50 [1] | IC50 (48 h) |
| --- | --- | --- |
| COCCOCCOc1ccc(-c2cn3nc(S(N)(=O)=O)sc3n2)cc1 [Compound 30] | 10 µM | – |
| Cc1c(-c2cn3nc(S(N)(=O)=O)sc3n2)sc2ccccc12 [Compound 115, 6-(3-Methylbenzo[b]thiophen-2-yl)imidazo[2,1-b]-1,3,4-thiadiazole-2-sulfonamide] | 7 µM | – |
| NS(=O)(=O)c1nn2cc(-c3ccc([N+](=O)[O-])cc3)nc2s1 [Compound 153, 6-(4-Nitrophenyl)imidazo[2,1-b]-1,3,4-thiadiazole-2-sulfonamide] | 5 µM | – |
| CNS(=O)(=O)c1nn2cc(-c3c(F)c(F)c(F)c(F)c3F)nc2s1 [Compound 138, 6-(2,3,4,5,6-pentafluorophenyl)imidazo[2,1-b]-1,3,4-thiadiazole-2-N-methylsulfonamide] | 2 µM | – |
| NS(=O)(=O)c1nn2c(Sc3ccccc3)c(-c3ccc4ccccc4c3)nc2s1 [Compound 135, 5-Thiophenyl-6-(2-naphthyl)imidazo[2,1-b]-1,3,4-thiadiazole-2-sulfonamide] | 7 µM | – |
| Cc1c(-c2cn3nc(S(N)(=O)=O)sc3n2)cnn1-c1ccccc1 [Compound 120, 6-(5-methyl-1-phenyl-1H-pyrazol-4-yl)imidazo[2,1-b]-1,3,4-thiadiazole-2-sulfonamide] | 7 µM | – |
| COc1ccc2ccc(-c3cn4nc(S(N)(=O)=O)sc4n3)cc2c1Br [Compound 63, 6-(8-Bromo-7-methoxylnaphth-2-yl)imidazo[2,1-b]-1,3,4-thiadiazole-2-sulfonamide] | 7 µM | – |
| CN(C)S(=O)(=O)c1nn2cc(-c3ccc(Br)cc3)nc2s1 [Compound 143, 6-(4-Bromophenyl)imidazo[2,1-b]-1,3,4-thiadiazole-2-N,N-dimethylsulfonamide] | 10 µM | – |
| NS(=O)(=O)c1nn2cc(-c3ccc(C(F)(F)F)cc3)nc2s1 [Compound 52, 6-(4-(Trifluoromethyl)phenyl)imidazo[2,1-b]-1,3,4-thiadiazole-2-sulfonamide] | 3 µM | – |
| NS(=O)(=O)c1nn2c(Br)c(C(F)(F)F)nc2s1 [Compound 134, 5-Bromo-6-trifluoromethylimidazo[2,1-b]-1,3,4-thiadiazole-2-sulfonamide] | 1 µM | – |
| CCN(CC)S(=O)(=O)c1nn2cc(-c3cccc(OC)c3)nc2s1 [Compound 141] | > 30 µM | – |
| NS(=O)(=O)c1nn2c(Br)c(-c3ccc(Br)cc3)nc2s1 [Compound 128, 5-Bromo-6-(4-bromophenyl)imidazo[2,1-b]-1,3,4-thiadiazole-2-sulfonamide hydrobromide] | 2 µM | – |
| Cc1nc(C)c(-c2cn3nc(S(N)(=O)=O)sc3n2)s1 [Compound 122, 6-(2,4-Thiaxol-5-yl)imidazo[2,1-b]-1,3,4-thiadiazole-2-sulfonamide] | 8 µM | – |
| NS(=O)(=O)c1nn2cc(-c3ccc(-c4c(F)c(F)c(F)c(F)c4F)cc3)nc2s1 [Compound 73, 6-(4-(2,3,4,5,6-tetrafluorophenyl)phenyl)imidazo[2,1-b]-1,3,4-thiadiazole-2-sulfonamide] | 2 µM | – |
| NS(=O)(=O)c1nn2c(Br)c(-c3ccccc3)nc2s1 [Compound 124, 5-Bromo-6-phenyl-imidazo[2,1-b]-1,3,4-thiadiazole-2-sulfonamide hydrobromide] | 3 µM | – |
| NS(=O)(=O)c1nn2cc(-c3cnccn3)nc2s1 [Compound 108] | 5 µM | – |
| CN(C)S(=O)(=O)c1nn2cc(-c3c(F)c(F)c(N=[N+]=[N-])c(F)c3F)nc2s1 [Compound 152, 6-(4-azido-2,3,5,6-pentafluorophenyl)imidazo[2,1-b]-1,3,4-thiadiazole-2-N,N-dimethylsulfonamide] | 2 µM | – |
| NS(=O)(=O)c1nn2cc(-c3ccc(OCC(=O)O)cc3)nc2s1 [Compound 102] | > 30 µM | – |
| NS(=O)(=O)c1nn2c(Cl)c(-c3ccccc3)nc2s1 [Compound 123, 5-Chloro-6-phenyl-imidazo[2,1-b]-1,3,4-thiadiazole-sulfonamide] | > 30 µM | – |

| Structure (SMILES) | IC50 [1] | IC50 (48 h) |
| --- | --- | --- |
| NS(=O)(=O)c1nn2c(Br)c(-c3ccc4ccccc4c3)nc2s1 [Compound 130, 5-Bromo-6-(2-naphthyl)imidazo[2,1-b]-1,3,4-thiadiazole-2-sulfonamide hydrobromide] | 2 µM | – |
| Cc1onc(-c2ccccc2)c1-c1cn2nc(S(N)(=O)=O)sc2n1 [Compound 118, 6-(5-Methyl-3-phenylisoxazol-4-yl)imidazo[2,1-b]-1,3,4-thiadiazole-2-sulfonamide] | 17 µM | – |
| CN(C)S(=O)(=O)c1nn2cc(-c3ccc4ccccc4c3)nc2s1 [Compound 147, 6-(2-Naphthyl)imidazo[2,1-b]-1,3,4-thiadiazole-2-N,N-dimethylsulfonamide] | 17 µM | – |
| NS(=O)(=O)c1nn2cc(-c3cccc4ccccc34)nc2s1 [Compound 61, 6-(1-Naphthyl)imidazo[2,1-b]-1,3,4-thiadiazole-2-sulfonamide] | 10 µM | – |
| NS(=O)(=O)c1nn2cc(-c3ccc(OCCOCc4ccccc4)cc3)nc2s1 [Compound 31, 6-(4′-(2-Benzyloxyethoxy)phenyl)-imidazo[2,1-b]-1,3,4-thidiazole-2 sulfonamide] | 10 µM | – |
| Cc1c(-c2ccccc2)nc2sc(S(N)(=O)=O)nn12 [Compound 65, 5-Methyl-6-phenyl-imidazo[2,1-b]-1,3,4-thiadiazole-2-sulfonamide] | 15 µM | – |
| CC(C)(C)c1cc(-c2cn3nc(S(N)(=O)=O)sc3n2)cc(C(C)(C)C)c1O [Compound 55, 6-(3,4-Di-tert-butyl-4-hydroxyphenyl)imidazo[2,1-b]-1,3,4-thiadiazole-2-sulfonamide] | 15 µM | – |
| NS(=O)(=O)c1nn2cc(-c3cc4ccc5cccc6ccc(c3)c4c56)nc2s1 [Compound 64, 6-pyrenylimidazo[2,1-b]-1,3,4-thiadiazole-2-sulfonamide] | – | 10 µM |
| NS(=O)(=O)c1nn2c(Br)c(-c3ccccn3)nc2s1 [Compound 125, 5-Bromo-6-(2-pyridyl)imidazo[2,1-b]-1,3,4-thiadiazole-2-sulfonamide hydrobromide] | 3 µM | – |
| NS(=O)(=O)c1nn2cc(-c3cc(C(F)(F)F)cc(C(F)(F)F)c3)nc2s1 [Compound 54, 6-(3,5-di(trifluoromethyl)phenyl)imidazo[2,1-b]-1,3,4-thiadiazole-2-sulfonamide] | 10 µM | – |
| NS(=O)(=O)c1nn2cc(-c3ccc(B(O)O)cc3)nc2s1 [Compound 71] | > 30 µM | – |
| COC(=O)COc1ccc(-c2cn3nc(S(N)(=O)=O)sc3n2)cc1 [Compound 101] | > 30 µM | – |
| Nc1nnc(Sc2c(-c3ccc4ccccc4c3)nc3sc(S(N)(=O)=O)nn23)s1 [Compound 136] | 5 µM | – |
| NS(=O)(=O)c1nn2cc(-c3cccs3)nc2s1 [Compound 112, 6-(2-Thiophenyl)-imidazo[2,1-b]-1,3,4-thiadiazole-2-sulfonamide] | 5 µM | – |
| NS(=O)(=O)c1nn2c(Br)c(-c3ccc(-c4ccccc4)cc3)nc2s1 [Compound 132, 5-Bromo-6-(biphenyl)imidazo[2,1-b]-1,3,4-thiadiazole-2-sulfonamide hydrobromide] | 1 µM | – |
| CN(C)S(=O)(=O)c1nn2c(Br)c(-c3ccc(Br)cc3)nc2s1 [Compound 144, hydrobromide] | 15 µM | – |
| NS(=O)(=O)c1nn2cc(C(F)(F)F)nc2s1 [Compound 59] | 10 µM | – |
| Cc1ccc(-c2nc3sc(S(N)(=O)=O)nn3c2C)cc1Cl [Compound 104, 6-(3-chloro-4-methylphenyl)-5-methylimidazo[2,1-b]-1,3,4-thiadiazole-2-sulfonamide] | 7 µM | – |
